Where a name gives a salt, the structure may show the parent alone.
Assays:
[1] = tested on: fibrin-induced microglia activation; experiment: Image-based assay of fibrin-induced microglia activation (HTS and dose response); assay type: cell-based, rat; conditions: primary microglia HTS, 10 μM, fibrin-stimulated, cell size >800 μm^2 as marker of activation; for inhibition at 10 µM: Rattus norvegicus, Microglia, read-out: Fibrin % inhibition
[2] = tested on: fibrin- and LPS-induced microglia activation; experiment: cells; assay type: cell-based, rat; conditions: HTS of 1907 compounds, quadrant by fibrin and LPS inhibition
[3] = tested on: LPS-induced microglia activation; experiment: Image-based assay of LPS-induced microglia activation (HTS and dose response); assay type: cell-based, rat; conditions: primary microglia HTS, 10 μM, LPS-stimulated, cell size >800 μm^2 as marker of activation; for inhibition at 10 µM: Rattus norvegicus, Microglia, read-out: LPS % inhibition
[4] = tested on: primary rat microglia; experiment: Cell toxicity (dead cells, size <150 μm2) in LPS assay; conditions: primary microglia HTS, 10 μM, LPS assay, cell size <150 μm^2 as marker of toxicity
[5] = tested on: primary rat microglia; experiment: Cell toxicity (dead cells, size <150 μm2) in coated fibrin (cFib) assay; conditions: primary microglia HTS, 10 μM, fibrin assay, cell size <150 μm^2 as marker of toxicity;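 further: share of dead cells sized under 150 µm2 at 10 µM in fibrin-stimulated microglia HTS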

Row | SMILES | Fibrin % inhibition [1] [%] | Quadrant (FIG. 5b) [2] | LPS % inhibition [3] [%] | LPS % cell toxicity [4] [%] | Fibrin % cell toxicity [5] [%] | inhibition at 10 µM [1] [%] | inhibition at 10 µM [3] [%]
1 | CC(=O)O[C@H]1C[C@@H]2CC[C@@H]3[C@H](CC[C@@]4(C)[C@H]3C[C@H]([N+]3(C)CCCCC3)[C@@H]4OC(C)=O)[C@@]2(C)C[C@@H]1N1CCCCC1 [Vecuronium] | −24 | Q4 | 0 | 1 | 1 |  | 
2 | COc1ccc(C(CN(C)C)C2(O)CCCCC2)cc1 (stereo not drawn) [Venlafaxine, Venlafaxine Hydrochloride] | 3 | Q4 | 20 | 0 | 1 |  | 
3 | Nc1ncnc2c1ncn2[C@@H]1O[C@H](CO)[C@@H](O)[C@@H]1O [Vidarabine] |  | Q4 |  | 0 | 1 | -3 | 14
4 | N#Cc1ccc2[nH]cc(CCCCN3CCN(c4ccc5oc(C(N)=O)cc5c4)CC3)c2c1 [Vilazodone] |  | Q4 |  | 1 | 1 | 1 | 27
5 | CC[C@]12CCCN3CCc4c(n(c5ccccc45)[C@@](O)(C(=O)OC)C1)[C@@H]32 [Vincamine] |  | Q4 |  | 0 | 0 | 1 | 20
6 | Cc1cc(C(C)(C)C)cc(C)c1CC1=NCCN1 [Xylometazoline] |  | Q4 |  | 1 | 0 | -5 | 19
7 | COC(=O)[C@@H]1[C@H]2C[C@H]3c4[nH]c5ccccc5c4CCN3C[C@@H]2CC[C@@H]1O [Yohimbine Hydrochloride] | −8 | Q4 | 19 | 1 | 1 |  | 
8 | COC(=O)[C@@H]1[C@H]2C[C@H]3c4[nH]c5ccccc5c4CCN3C[C@@H]2CC[C@@H]1O [Yohimbine] | 4 | Q4 | −17 | 0 | 1 |  | 
9 | CCN(C(C)=O)c1cccc(-c2ccnc3c(C#N)cnn23)c1 [Zaleplon] |  | Q4 |  | 0 | 1 | 16 | 13
10 | CCCOc1ccccc1-c1nc2nn[nH]c2c(=O)[nH]1 [Zaprinast] |  | Q4 |  | 0 | 1 | -34 | 13
11 | CC(c1cc2ccccc2s1)N(O)C(N)=O (stereo not drawn) [Zileuton] |  | Q4 |  | 0 | 0 | -12 | 21
12 | CN(C)CCc1c[nH]c2ccc(C[C@H]3COC(=O)N3)cc12 [Zolmitriptan] |  | Q4 |  | 0 | 1 | 9 | 18
